Assays:
[1] = human, serum
[2] = human, serum, 4383 h
[3] = human
[4] = human; remark: listed apart in the source
[5] = Highest frequency of acute liver toxicity observed during clinical trials, expressed as a percentage. [column '% AIGUE' in source]; details: human
[6] = human; remark: listed apart in the source
[7] = human; remark: listed apart in the source
[8] = human; remark: listed apart in the source
[9] = human; remark: listed apart in the source
[10] = Times to onset, minimal and maximal, observed in the indexed observations. [column 'DELAI' in source]; details: human
[11] = Highest frequency of moderate liver toxicity observed during clinical trials, expressed as a percentage. [column '% BIOL' in source]; details: human
[12] = human; remark: listed apart in the source
[13] = human; remark: listed apart in the source
[14] = human; remark: listed apart in the source
[15] = human, serum; remark: listed apart in the source
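Throughout, for Hepatotoxicity (association with vascular disease): count of indexed literature references reporting vascular liver injury in humans, e.g. peliosis hepatitis, hepatic veno-occlusive disease or Budd-Chiari syndrome.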
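Throughout, for Hepatotoxicity (benign tumour): value is a count of indexed literature references citing a benign tumour confirmed by histopathology.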
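Throughout, for Hepatotoxicity (choleostasis): human cholestatic liver injury, shown by histopathology or by peak ALT or AST elevation over alkaline phosphatase ratio below 2, value counts indexed literature reports.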
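Throughout, for Hepatotoxicity (chronic liver disease): chronic liver injury confirmed by histopathology or persistently raised serum aminotransferase activity beyond 6 months, value given as the count of indexed literature references.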
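Throughout, for Hepatotoxicity (cirrhosis): value is a count of indexed literature references reporting cirrhosis confirmed by histopathology.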
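Throughout, for Hepatotoxicity (cytolytic): human cytolytic liver injury, shown by histopathology or by a ratio above 5 of peak ALT or AST elevation to alkaline phosphatase elevation, value counts indexed references.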
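Throughout, for Hepatotoxicity (granulomatous hepatitis): value is a count of indexed literature references reporting granulomatous liver disease confirmed by histopathology.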
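Throughout, for Hepatotoxicity (malignant tumour): malignant tumour confirmed by histopathology, value gives the count of indexed literature references reporting it.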
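Throughout, for Hepatotoxicity (severe hepatitis): human clinical data: severe hepatitis, meaning potentially life-threatening liver failure or clinically observed cases, the value counts how many indexed literature references report it.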
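Throughout, for Hepatotoxicity (steatosis): steatosis confirmed by histopathology, value is the count of indexed references.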

Compound	Hepatotoxicity (moderate) [1]	Hepatotoxicity (chronic liver disease) [2]	Hepatotoxicity (cirrhosis) [3]	Hepatotoxicity (severe hepatitis) [4]	Hepatotoxicity (acute) [5] [%]	Hepatotoxicity (association with vascular disease) [6]	Hepatotoxicity (steatosis) [7]	Hepatotoxicity (choleostasis) [8]	Hepatotoxicity (benign tumour) [9]	Hepatotoxicity (time to onset) [10]	Hepatotoxicity (moderate) [11] [%]	Hepatotoxicity (cytolytic) [12]	Hepatotoxicity (granulomatous hepatitis) [13]	Hepatotoxicity (malignant tumour) [14]	Hepatotoxicity (acute) [15]
CN(C)CC(Oc1ccccc1)Oc1ccccc1 [MEDIFOXAMINE]	0	0	0	2	0	0	0	0	0	6 days	0	1	0	0	1
CCCC(C)(COC(N)=O)COC(N)=O [MEPROBAMATE]	0	0	0	0	0	0	0	1	0	2 weeks - 6 months	0	0	0	0	2
C[C@H]1CC(=O)C[C@@H]2CC[C@H]3[C@@H]4CC[C@H](O)[C@@]4(C)CC[C@@H]3[C@]21C [MESTEROLONE]	0	0	0	0	0	0	0	0	0	2 years	0	1	0	0	1
CNC1Cc2ccccc2N(C)c2ccccc21 (stereo not given) [METAPRAMINE]	0	0	0	0	0	0	1	1	0	3 weeks - 3 months	0	1	0	0	1
C=C1c2cccc(O)c2C(=O)C2=C(O)[C@]3(O)C(=O)C(C(N)=O)=C(O)[C@@H](N(C)C)[C@@H]3[C@@H](O)[C@H]12 [METHACYCLINE]	0	0	0	0	0	0	0	0	0	7 months - 1 year	0	1	0	0	1
COc1cccc(OC)c1C(=O)N[C@@H]1C(=O)N2[C@@H]1SC(C)(C)[C@@H]2C(=O)O [METHICILLIN]	1	0	0	0	0	0	0	0	0	3 days - 3 weeks	18.7	0	0	0	0
CC[C@@H](CO)NC(=O)[C@@H]1C=C2c3cccc4[nH]cc(c34)C[C@H]2N(C)C1 [METHYLERGONOVINE]	1	0	0	0	0	0	0	0	0	0.12 days	0	0	0	0	0
CC[C@@H](CO)NC(=O)[C@@H]1C=C2c3cccc4c3c(cn4C)C[C@H]2N(C)C1 [METHYSERGIDE]	1	0	0	0	0	0	0	0	0	5 years	0	0	0	0	0
Cc1ccc2c(c1)C(N1CCN(C)CC1)=Nc1ccccc1S2 [METIAPINE]	2	0	0	0	0	0	0	0	0	2 weeks - 2 months	0	1	0	0	1
CCN(CC)CCNC(=O)c1cc(Cl)c(N)cc1OC [METOCLOPRAMIDE]	2	0	0	0	0	1	0	0	0	2 days - 4 months	6	1	0	0	1
Cc1ccccc1N1C(=O)c2cc(S(N)(=O)=O)c(Cl)cc2NC1C (stereo not given) [METOLAZONE]	0	0	0	1	0	0	0	1	0	8 days - 3 months	0	0	1	0	2
